Source: patent US7842695B2, “Substituted pyrazole compounds” (Merck Patent GmbH, priority 2003, dated 2010)
pIC50: −log10 of the molar value.

Key:
5-HT2A receptors = 5-HT2A receptors (UniProt P14842); test: in-vitro affinity to 5-HT2A receptors, [3H]ketanserine displacement (Example A1); type: binding
Source text: The 5-HT2A receptors are exposed both to [^3H]ketanserine (a substance known for its affinity to the receptor) and also to the test compound. The decrease in the affinity of [^3H]ketanserine to the receptor is an indication of the affinity of the test substance to the 5-HT2A receptor.

5 HT2C receptor = target: T1, 5 HT2C receptor (Homo sapiens, UniProt P28335); test: affinity to the 5 HT2C receptor; type: binding
T1 sequence (P28335 33-458): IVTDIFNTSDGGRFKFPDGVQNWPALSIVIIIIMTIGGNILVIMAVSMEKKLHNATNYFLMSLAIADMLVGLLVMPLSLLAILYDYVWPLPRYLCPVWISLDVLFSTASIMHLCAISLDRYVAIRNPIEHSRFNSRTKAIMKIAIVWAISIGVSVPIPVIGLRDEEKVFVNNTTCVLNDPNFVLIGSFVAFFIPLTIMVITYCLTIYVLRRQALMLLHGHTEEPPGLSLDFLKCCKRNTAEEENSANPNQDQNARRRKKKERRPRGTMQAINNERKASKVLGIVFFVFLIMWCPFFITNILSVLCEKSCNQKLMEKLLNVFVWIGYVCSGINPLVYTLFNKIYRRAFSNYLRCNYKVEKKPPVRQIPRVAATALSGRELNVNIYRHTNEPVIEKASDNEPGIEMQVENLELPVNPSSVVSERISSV

Compound	pIC50 (5-HT2A receptors)	pIC50 (5 HT2C receptor)
CN1CCN(Cc2cnn(-c3ccc(-c4ccc(F)cc4)cn3)c2-c2ccco2)CC1 [Example 590, 1-{1-[5-(4-Fluorophenyl)pyridin-2-yl]-5-furan-2-yl-1H-pyrazol-4-ylmethyl}-4-methylpiperazine]	7.70	6.00
CN1CCN(Cc2cnn(-c3ccc(-c4cc(F)c(OC(F)(F)F)c(F)c4)cc3)c2-c2ccccc2F)CC1 [Example 623, 1-[1-(3′,5′-Difluoro-4′-trifluoromethoxybiphenyl-4-yl)-5-(2-fluorophenyl)-1H-pyrazol-4-ylmethyl]-4-methylpiperazine]	7.46	6.74
CCN1CCN(Cc2cnn(-c3ccc(-c4ccc(F)cc4)cn3)c2-c2ccco2)CC1 [Example 583, 1-Ethyl-4-{1-[5-(4-fluorophenyl)pyridin-2-yl]-5-furan-2-yl-1H-pyrazol-4-ylmethyl}piperazine]	7.74	6.00
CN1CCN(Cc2cnn(-c3ccc(-c4ccc(F)cc4)cc3)c2-c2ccsc2)CC1 [Example 556, 1-[1-(4′-Fluorobiphenyl-4-yl)-5-thiophen-3-yl-1H-pyrazol-4-ylmethyl]-4-methylpiperazine]	8.11	6.20
CC(C)N1CCN(Cc2cnn(-c3ccc(-c4ccc(F)cc4)cc3)c2-c2ccco2)CC1 [Example 558, 1-[1-(4′-Fluorobiphenyl-4-yl)-5-furan-2-yl-1H-pyrazol-4-ylmethyl]-4-isopropylpiperazine]	8.09	6.43
CN1CCN(Cc2cnn(-c3ccc(-c4ccc5c(c4)OCO5)cc3)c2-c2ccccc2F)CC1 [Example 563, 1-[1-(4-Benzo-1,3-dioxol-5-ylphenyl)-5-(2-fluorophenyl)-1H-pyrazol-4-ylmethyl]-4-methylpiperazine]	8.00	6.29
Cc1ccoc1-c1c(CN2CCN(C)CC2)cnn1-c1ccc(-c2ccc(F)cc2)cc1 [Example 560, 1-[1-(4′-Fluorobiphenyl-4-yl)-5-(3-methyl-2-furanyl)-1H-pyrazol-4-ylmethyl]-4-methylpiperazine]	8.05	6.11
Cc1ccoc1-c1c(CN(C)C)cnn1-c1ccc(-c2ccc(F)cc2)cc1 [Example 553, [1-(4′-Fluorobiphenyl-4-yl)-5-(3-methyl-2-furanyl)-1H-pyrazol-4-ylmethyl]dimethylamine]	8.19	6.44
Fc1ccc(-c2ccc(-n3ncc(CN4CCN(CCN5CCCC5)CC4)c3-c3ccco3)cc2)cc1 [Example 633, 1-[1-(4′-Fluorobiphenyl-4-yl)-5-furan-2-yl-1H-pyrazol-4-ylmethyl]-4-(2-pyrrolidin-1-ylethyl)piperazine]	7.39	6.00
